Converted amounts (≈) assume the structure as drawn. Residues, ends and D or L forms follow the SMILES beside them.
Experiments:
A. baumannii = experiment: microbe, parasite or virus in culture
Protocol: (§1) Antimicrobial activity of arenicin-3 and its analogs was tested against a panel of bacterial and yeast strains by in vitro broth microdilution (BMD) assay with minimum inhibitory concentration (MIC) determination. Strains were purchased from American Type Culture Collection (ATCC) or obtained from clinical collaborators (full strain profiles provided in Supplementary Data 3). All peptides were prepared in Ringer’s acetate solution, and subsequently diluted fresh in water for each independent assay.
(§2) Assays were performed in Mueller Hinton broth (MHB; BD, Cat. No. 211443) for bacteria, and yeast extract-peptone dextrose (YPD; Sigma-Aldrich, Y1500) for yeast. The concentrations of the peptides and comparator antibiotics/antifungals in the assay wells ranged from either 128 or 64 μg mL^−1, to 0.06 or 0.03 μg mL^−1 as a 12-point dose response plated as a 2-fold dilution series across the wells of the plate in duplicate for each independent biological replicate, using a final cell density of 5 × 10^5 CFU mL^−1 and 2.5 × 10^3 CFU mL^−1 for bacteria and yeast respectively. Final assay volumes were 100 μL per well with MICs determined visually following 18-20 h incubation at 37 °C for bacteria, 24 h incubation at 35 °C for Candida albicans, and 24 h incubation at 35 °C with resazurin addition (0.006%; Sigma-Aldrich, Cat # R7017) for a further 3 h for Cryptococcus neoformans, without shaking. Additional bacterial and yeast susceptibility assays were performed in Cation-Adjusted Mueller Hinton Broth (CAMHB; BD, Cat No. 212322) and Roswell Park Memorial Institute (RPMI) 1640 culture medium (Life Technologies Australia, Cat No. 21870092), respectively, as recommended by CLSI guidelines (M07 11th ed[36] and M27 4th ed[37]). […] Agarose MICs were determined in MHB with 1% agarose (Bioline molecular grade; Cat no: BIO-41025; high purity, high gel strength). All experiments were performed a minimum of six replicates (n ≥ 6).

C. albicans = experiment: microbe, parasite or virus in culture; details: 24 h
Protocol: as §1, §2

E. coli = experiment: microbe, parasite or virus in culture
Protocol: as §1, §2

K. pneumoniae = experiment: microbe, parasite or virus in culture
Protocol: as §1, §2

P. aeruginosa = experiment: microbe, parasite or virus in culture
Protocol: as §1, §2

S. aureus = experiment: microbe, parasite or virus in culture
Protocol: as §1, §2

E. coli ATCC 25922 = experiment: microbe, parasite or virus in culture; assay type: cell-based, Escherichia coli; details: ATCC 25922
Protocol: Assays were performed in Mueller Hinton broth (MHB; BD, Cat. No. 211443) for bacteria, and yeast extract-peptone dextrose (YPD; Sigma-Aldrich, Y1500) for yeast. The concentrations of the peptides and comparator antibiotics/antifungals in the assay wells ranged from either 128 or 64 μg mL^−1, to 0.06 or 0.03 μg mL^−1 as a 12-point dose response plated as a 2-fold dilution series across the wells of the plate in duplicate for each independent biological replicate, using a final cell density of 5 × 10^5 CFU mL^−1 and 2.5 × 10^3 CFU mL^−1 for bacteria and yeast respectively. Final assay volumes were 100 μL per well with MICs determined visually following 18-20 h incubation at 37 °C for bacteria, 24 h incubation at 35 °C for Candida albicans, and 24 h incubation at 35 °C with resazurin addition (0.006%; Sigma-Aldrich, Cat # R7017) for a further 3 h for Cryptococcus neoformans, without shaking. Additional bacterial and yeast susceptibility assays were performed in Cation-Adjusted Mueller Hinton Broth (CAMHB; BD, Cat No. 212322) and Roswell Park Memorial Institute (RPMI) 1640 culture medium (Life Technologies Australia, Cat No. 21870092), respectively, as recommended by CLSI guidelines (M07 11th ed[36] and M27 4th ed[37]). […] However, for yeast it was determined that the YPD media was more reliable and robust between repeats and therefore MICs in this media are reported. […] Agarose MICs were determined in MHB with 1% agarose (Bioline molecular grade; Cat no: BIO-41025; high purity, high gel strength). All experiments were performed a minimum of six replicates (n ≥ 6).

in vitro = details: human
Protocol: (§3) HEK-293 human embryonic kidney cells (ATCC CRL-1573), HepG2 liver hepatocellular carcinoma cells (ATCC HB-8065), and HK-2 human kidney proximal tubule cells (ATCC CRL-2190) cell lines were purchased from ATCC. Cytotoxicity of arenicin-3 variants was determined using the Alamar Blue (resazurin; Sigma-Aldrich, Cat # R7017), with 1% FBS for HK-2 and 10% FBS for HEK-293, and HepG2[40]. Cells were seeded as 2000 cells per well in black wall clear bottom 384-well plates (Corning®, Costar®, Cat # 3712). The cells were incubated for 24 h at 37 °C, 5% CO2. Then peptides were added into each cell containing well. After 24 h incubation, 5 μM resazurin were added per well and incubated at 37 °C for 2 h. Then the fluorescence intensity (FI) was read using a Polarstar® Omega plate reader with excitation/emission 560/590 and CC50 values were determined using Prism 8 following curve fitting and applying the following equation: Percentageviability = (FITEST-FINegative/FIUNTREATED-FINegative)×100.
(§4) Hemolytic activity was measured against isolated human erythrocytes from anonymously donated fresh human blood. Isolated erythrocytes were adjusted to 1 × 10^9 blood cells mL^−1 in phosphate-buffered saline (PBS, pH 7.4), added to the wells of NUNC polypropylene round-bottom 96-well plates (Sigma-Aldrich, Cat # P6866) then up to 300 μg mL^−1 of compound was added per well and incubated for 3 h at 37 °C. Following incubation, samples were centrifuged at 3000 rpm for 20 min, and the supernatants, 100 μL, were carefully collected for measurement. The degree of hemolysis in the samples was determined by measurement of the absorption of the supernatants at 540 nm using the Polarstar-Omega plate reader. 1% Triton-X100 was used as positive control for inducing 100% hemolysis. HC10 and HC50 values were determined using Prism 8 following curve fitting. The use of human blood (sourced from the Australian Red Cross Blood Service) for hemolysis assays was approved by the University of Queensland Institutional Human Research Ethics Committee, Approval Number 2014000031. All in vitro toxicity assays were performed for two independent biological replicates as an 8-point dose response of 3-fold dilution series in triplicate with the highest test concentration of 300 μg mL^−1.

[1] = system: HEK-293 human embryonic kidney cells; experiment: in vitro
Protocol: as §3, §4

[2] = system: HK-2 human kidney proximal tubule cells; experiment: in vitro
Protocol: as §3, §4

[3] = system: HepG2 liver hepatocellular carcinoma cells; experiment: in vitro
Protocol: as §3, §4

[4] = system: human erythrocytes (HRBC); assay type: cell-based; details: for Heamolysis HC10: red cells of human, 3 h

SMILES	BMD MIC (A. baumannii)	BMD MIC (C. albicans)	BMD MIC (E. coli)	BMD MIC (K. pneumoniae)	BMD MIC (P. aeruginosa)	BMD MIC (S. aureus)	MIC, MHB (E. coli ATCC 25922)	CC50 at 24 h (in vitro; HEK-293 cells)	CC50 at 24 h (in vitro; HK-2 cells)	CC50 at 24 h (in vitro; HepG2 cells)	CC50 HEK293 [1]	CC50 HEK293, Mean [1]	CC50 HK2 [2]	CC50 HK2, Mean [2]	CC50 HepG2 [3]	CC50 HepG2, Mean [3]	Heamolysis HC10, Mean [4]	Heamolysis HC10 [4]
CC(C)[C@@H]1NC(=O)CNC(=O)[C@H](CC(N)=O)NC(=O)[C@H](CCCNC(=N)N)NC(=O)[C@H](CCCCN)NC(=O)[C@H](C(C)C)NC(=O)[C@@H]2CSSC[C@H](NC(=O)[C@H](CO)NC(=O)[C@H](CCCNC(=N)N)NC1=O)C(=O)N[C@@H](Cc1ccc(O)cc1)C(=O)N[C@@H](CCCNC(=N)N)C(=O)N[C@@H](CCCNC(=N)N)C(=O)N[C@H](C(=O)N[C@@H](CC(N)=O)C(=O)O)CSSC[C@H](NC(=O)[C@H](Cc1ccccc1)NC(=O)CN)C(=O)N[C@@H](Cc1c[nH]c3ccccc13)C(=O)N[C@@H](Cc1ccc(O)cc1)C(=O)N[C@@H](C(C)C)C(=O)N2 [NZ17160] (HELM PEPTIDE1{G.F.C.W.Y.V.C.V.K.R.N.G.V.R.S.C.Y.R.R.C.N}$PEPTIDE1,PEPTIDE1,3:R3-20:R3|PEPTIDE1,PEPTIDE1,7:R3-16:R3$$$V2.0)	1 µg/mL	64 µg/mL	0.125 µg/mL	0.25 µg/mL	0.5 µg/mL	>64 µg/mL	0.125 µg/mL (≈ 0.0487 µM)	> 300 µg/mL	> 250 µg/mL	> 300 µg/mL	>300 µg/mL	>300 µg/mL	>257 µg/mL	>250 µg/mL	>300 µg/mL	>300 µg/mL	>300 µg/mL	>300 µg/mL
CC(C)C[C@@H]1NC(=O)CNC(=O)[C@H](CC(N)=O)NC(=O)[C@H](CCCNC(=N)N)NC(=O)[C@H](CO)NC(=O)[C@H](C)NC(=O)[C@@H]2CSSC[C@H](NC(=O)[C@H](C(C)C)NC(=O)[C@H](CCCNC(=N)N)NC1=O)C(=O)N[C@@H](Cc1ccc(O)cc1)C(=O)N[C@@H](CCCNC(=N)N)C(=O)N[C@@H](CCCNC(=N)N)C(=O)N[C@H](C(=O)N[C@@H](CC(N)=O)C(=O)O)CSSC[C@H](NC(=O)[C@H](Cc1ccccc1)NC(=O)CN)C(=O)N[C@@H](Cc1c[nH]c3ccccc13)C(=O)N[C@@H](CCCNC(=N)N)C(=O)N[C@@H](C(C)C)C(=O)N2 [NZ17125] (HELM PEPTIDE1{G.F.C.W.R.V.C.A.S.R.N.G.L.R.V.C.Y.R.R.C.N}$PEPTIDE1,PEPTIDE1,3:R3-20:R3|PEPTIDE1,PEPTIDE1,7:R3-16:R3$$$V2.0)	1 µg/mL	64 µg/mL	0.125 µg/mL	0.25 µg/mL	0.25 µg/mL	64 µg/mL	0.125 µg/mL (≈ 0.0497 µM)	250 µg/mL (≈ 99.4 µM)	110 µg/mL (≈ 43.7 µM)	299 µg/mL (≈ 119 µM)	–	250 µg/mL (≈ 99.4 µM)	–	110 µg/mL (≈ 43.7 µM)	–	299 µg/mL (≈ 119 µM)	181 µg/mL	–
CC(C)[C@@H]1NC(=O)CNC(=O)[C@H](CC(N)=O)NC(=O)[C@H](CCCNC(=N)N)NC(=O)[C@H](Cc2ccc(O)cc2)NC(=O)[C@H](C(C)C)NC(=O)[C@@H]2CSSC[C@H](NC(=O)[C@H](C)NC(=O)[C@H](CCCNC(=N)N)NC1=O)C(=O)N[C@@H](Cc1ccc(O)cc1)C(=O)N[C@@H](CCCNC(=N)N)C(=O)N[C@@H](CCCNC(=N)N)C(=O)N[C@H](C(=O)N[C@@H](CC(N)=O)C(=O)O)CSSC[C@H](NC(=O)[C@H](Cc1ccccc1)NC(=O)CN)C(=O)N[C@@H](Cc1c[nH]c3ccccc13)C(=O)N[C@@H](CCCNC(=N)N)C(=O)N[C@@H](C)C(=O)N2 [NZ17228] (HELM PEPTIDE1{G.F.C.W.R.A.C.V.Y.R.N.G.V.R.A.C.Y.R.R.C.N}$PEPTIDE1,PEPTIDE1,3:R3-20:R3|PEPTIDE1,PEPTIDE1,7:R3-16:R3$$$V2.0)	1 µg/mL	64 µg/mL	0.125 µg/mL	0.25 µg/mL	0.5 µg/mL	64 µg/mL	0.125 µg/mL (≈ 0.049 µM)	> 300 µg/mL	> 250 µg/mL	> 300 µg/mL	>300 µg/mL	>300 µg/mL	>255 µg/mL	>250 µg/mL	>300 µg/mL	>300 µg/mL	>300 µg/mL	>300 µg/mL
CC(C)[C@@H]1NC(=O)CNC(=O)[C@H](CC(N)=O)NC(=O)[C@H](CCCNC(=N)N)NC(=O)[C@H](CCCNC(=N)N)NC(=O)[C@H](C)NC(=O)[C@@H]2CSSC[C@H](NC(=O)[C@H](C(C)C)NC(=O)[C@H](CCCNC(=N)N)NC1=O)C(=O)N[C@@H](Cc1ccc(O)cc1)C(=O)N[C@@H](CCCNC(=N)N)C(=O)N[C@@H](CCCNC(=N)N)C(=O)N[C@H](C(=O)N[C@@H](CC(N)=O)C(=O)O)CSSC[C@H](NC(=O)[C@H](Cc1ccccc1)NC(=O)CN)C(=O)N[C@@H](Cc1c[nH]c3ccccc13)C(=O)N[C@@H](Cc1c[nH]cn1)C(=O)N[C@@H](C(C)C)C(=O)N2 [NZ17224] (HELM PEPTIDE1{G.F.C.W.H.V.C.A.R.R.N.G.V.R.V.C.Y.R.R.C.N}$PEPTIDE1,PEPTIDE1,3:R3-20:R3|PEPTIDE1,PEPTIDE1,7:R3-16:R3$$$V2.0)	0.5 µg/mL	32 µg/mL	0.06 µg/mL	0.25 µg/mL	0.25 µg/mL	64 µg/mL	0.06 µg/mL (≈ 0.0235 µM)	> 300 µg/mL	> 250 µg/mL	> 300 µg/mL	>300 µg/mL	>300 µg/mL	>255 µg/mL	>250 µg/mL	>300 µg/mL	>300 µg/mL	>300 µg/mL	>300 µg/mL

From paper PMC7311426, “An amphipathic peptide with antibiotic activity against multidrug-resistant Gram-negative bacteria” (Nature Communications, 2020)
